This note sets out measurements from the supplement of paper PMC11208160.

The data set in a line: recombinant barcode read abundance after kanamycin selection (control-corrected) (log10(CPM+1)); higher = more efficient recombination; sequences stand for … in AGTGCAGAGAAAATCGGCCAGTTTTCTCTGCCTGCAGTCCGCATGCCGT…AGATTTATGCAGCGGACTGCCTTTCTCCCAAAGTGATAAACCGGACAGTATCATGGACCGGTTTTCCCGGTAATCCGTATTTGCAAGGTTGGTTTCACT; site = the 11-nt target. The procedure, abridged: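 Recombination efficiency in this pooled E. coli screen uses counts per million of barcodes at recombinant junctions, averaged and corrected against the control. The reported form is log10(CPM+1). Two replicates were plated on chloramphenicol/ampicillin LB agar as control and two on chloramphenicol/ampicillin/kanamycin with 0.1 mM IPTG.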
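Further: IS621 recombinase and bridge RNA in Escherichia coli cells.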

In the case of “CCGGATTCTTGGGTTCTAACCTGTTGCCT (site CCGGTTGCTAG)”, the “recombinant barcode read abundance (log10)” value came out at 0.369.

Consider “CCGGTAACTTGGGTTCTAACCTGTTGCCT (site CCGGTAACTAG)”, for which the “recombinant barcode read abundance (log10)” value amounted to 0.45. “CCGGTAACTTGGGTTCTAACCTGTTGCCT (site CCTGTAGCTAG)”: the “recombinant barcode read abundance (log10)” value amounted to 0.142.

In the case of “CCGGTAGCTTGGGTTCTAACCTGTTGCCA (site CCGGTAGCTTG)”, the “recombinant barcode read abundance (log10)” value is 0.443. In the case of “CCGGTAGCTTGGGTTCTAACCTGTTGCCA (site GCAGTAGCTTG)”, the “recombinant barcode read abundance (log10)” value was determined as 0.556. Regarding “CCGGTATCTTGGGTTCTAACCTGTTGCCT (site CCGATATCTAG)”, the “recombinant barcode read abundance (log10)” value came out at 0.0308. On to “CCGGTATCTTGGGTTCTAACCTGTTGCCT (site CCGCTATCTAG)”, for which the “recombinant barcode read abundance (log10)” value is 0.688.

“CCGGTATCTTGGGTTCTAACCTGTTGCCT (site CCGGTATCTAG)”: the “recombinant barcode read abundance (log10)” value amounted to 0.197. As for “CCGGTATCTTGGGTTCTAACCTGTTGCCT (site CCGTTATCTAG)”, the figure is 0.0727.

For “CCGGTGCCTTGGGTTCTAACCTGTTGCCT (site CAGGTGCCTAG)”, the “recombinant barcode read abundance (log10)” value was 0.0703. For “CCGGTGCCTTGGGTTCTAACCTGTTGCCT (site CCGGTGCCTAG)”, the “recombinant barcode read abundance (log10)” value was 2.29. Consider “CCGGTGCCTTGGGTTCTAACCTGTTGCCT (site CGGGTGCCTAG)”, for which the “recombinant barcode read abundance (log10)” value was 1.03. “CCGGTGCCTTGGGTTCTAACCTGTTGCCT (site CTGGTGCCTAG)”: the “recombinant barcode read abundance (log10)” value came to 0.21.

With “CCGTAAGCTTGGGTTCTAACCTGTTGCCT (site CCGTAAACTAG)”, the “recombinant barcode read abundance (log10)” value amounted to 0.139. As for “CCGTAAGCTTGGGTTCTAACCTGTTGCCT (site CCGTAACCTAG)”, the figure is 0.0711.

As to “CCGTAAGCTTGGGTTCTAACCTGTTGCCT (site CCGTAAGCTAG)”, the “recombinant barcode read abundance (log10)” value was determined as 0.105. Take “CCGTAAGCTTGGGTTCTAACCTGTTGCCT (site CCGTAATCTAG)”: the “recombinant barcode read abundance (log10)” value came out at 0.0655. The figure for “CCGTACTCTTGGGTTCTAACCTGTTGCCT (site CCGTACTCTAG)” is 1.22; for “CCGTACTCTTGGGTTCTAACCTGTTGCCT (site CCGTAGTCTAG)” it is 0.0897.

For “CCGTCTACTTGGGTTCTAACCTGTTGCCT (site CAGTCTACTAG)”, the “recombinant barcode read abundance (log10)” value was found to be 0.0408. As to “CCGTCTACTTGGGTTCTAACCTGTTGCCT (site CCGTCTACTAG)”, the “recombinant barcode read abundance (log10)” value is 0.0187. The figure for “CCGTCTACTTGGGTTCTAACCTGTTGCCT (site CGGTCTACTAG)” is 0.0454; for “CCGTCTACTTGGGTTCTAACCTGTTGCCT (site CTGTCTACTAG)” it is 0.082; for “CCGTCTACTTGGGTTCTAACCTGTTGCTA (site CCGTCTACTAA)” it is 0.02. Consider “CCGTCTACTTGGGTTCTAACCTGTTGCTA (site CCGTCTACTCA)”, for which the “recombinant barcode read abundance (log10)” value was found to be 0.161. For the sequence “CCGTCTACTTGGGTTCTAACCTGTTGCTA (site CCGTCTACTGA)”, the “recombinant barcode read abundance (log10)” value was found to be 0.125. On to “CCGTCTACTTGGGTTCTAACCTGTTGCTA (site CCGTCTACTTA)”, for which the “recombinant barcode read abundance (log10)” value is 0.259. As for “CCGTGCCCTTGGGTTCTAACCTGTTGCGT (site CCGTGCCCTAC)”, the figure is 1.92; as for “CCGTGCCCTTGGGTTCTAACCTGTTGCGT (site TCGTGCCCTAC)”, 0.0224; as for “CCGTGCCCTTGGGTTCTAACCTGTTGCTG (site CCGGACCCTCA)”, 0.111. “CCGTGCCCTTGGGTTCTAACCTGTTGCTG (site CCGTGCCCTCA)”: the “recombinant barcode read abundance (log10)” value amounted to 1.62. Turning to “CCTAAAACTTGGGTTCTAACCTGTTGCCT (site CCTAAAACTAG)”, the “recombinant barcode read abundance (log10)” value stood at 0.0998.

As to “CCTAAAACTTGGGTTCTAACCTGTTGCCT (site GAACTCTCTTA)”, the “recombinant barcode read abundance (log10)” value turned out to be 0.0257.

Turning to “CCTAACCCTTGGGTTCTAACCTGTTGCGT (site CCTAAACCTAC)”, the “recombinant barcode read abundance (log10)” value turned out to be 0.39. In the case of “CCTAACCCTTGGGTTCTAACCTGTTGCGT (site CCTAACCCTAC)”, the “recombinant barcode read abundance (log10)” value turned out to be 1.85. As for “CCTAACCCTTGGGTTCTAACCTGTTGCGT (site CCTAAGCCTAC)”, the figure is 0.0306; as for “CCTAACCCTTGGGTTCTAACCTGTTGCGT (site CCTAATCCTAC)”, 0.381; as for “CCTAAGACTTGGGTTCTAACCTGTTGCCA (site CCTAAGACTAG)”, 0.08. On to “CCTAAGACTTGGGTTCTAACCTGTTGCCA (site CCTAAGACTCG)”, for which the “recombinant barcode read abundance (log10)” value came to 0.133. As to “CCTAAGACTTGGGTTCTAACCTGTTGCCA (site CCTAAGACTGG)”, the “recombinant barcode read abundance (log10)” value worked out at 0.0159. For “CCTAAGACTTGGGTTCTAACCTGTTGCCA (site CCTAAGACTTG)”, the “recombinant barcode read abundance (log10)” value was found to be 0.

Take “CCTAAGACTTGGGTTCTAACCTGTTGCCT (site CCTAAGACTAG)”: the “recombinant barcode read abundance (log10)” value came to 0.595. Consider “CCTAAGACTTGGGTTCTAACCTGTTGCCT (site CCTAAGACTCG)”, for which the “recombinant barcode read abundance (log10)” value stood at 0.0786. Turning to “CCTAAGACTTGGGTTCTAACCTGTTGCCT (site CCTAAGACTGG)”, the “recombinant barcode read abundance (log10)” value came to 0.0702. In the case of “CCTAAGACTTGGGTTCTAACCTGTTGCCT (site CCTAAGACTTG)”, the “recombinant barcode read abundance (log10)” value was found to be 0.0542. With “CCTAAGCCTTGGGTTCTAACCTGTTGCAT (site CCTAAGCCTAT)”, the “recombinant barcode read abundance (log10)” value is 0.859. With “CCTAAGCCTTGGGTTCTAACCTGTTGCAT (site GGACGCACTCC)”, the “recombinant barcode read abundance (log10)” value was found to be 0.111.

With “CCTAATACTTGGGTTCTAACCTGTTGCTT (site ACTAATCCTAA)”, the “recombinant barcode read abundance (log10)” value came out at 0.107. “CCTAATACTTGGGTTCTAACCTGTTGCTT (site CCTAATACTAA)”: the “recombinant barcode read abundance (log10)” value is 0.155.

In the case of “CCTACATCTTGGGTTCTAACCTGTTGCAT (site CCTACATCTAT)”, the “recombinant barcode read abundance (log10)” value was 0.252. With “CCTACATCTTGGGTTCTAACCTGTTGCAT (site CCTACATCTTA)”, the “recombinant barcode read abundance (log10)” value is 0.0552.

In the case of “CCTACATCTTGGGTTCTAACCTGTTGCCT (site CCTACAACTAG)”, the “recombinant barcode read abundance (log10)” value was 0.124. In the case of “CCTACATCTTGGGTTCTAACCTGTTGCCT (site CCTACACCTAG)”, the “recombinant barcode read abundance (log10)” value was 0.115. With “CCTACATCTTGGGTTCTAACCTGTTGCCT (site CCTACAGCTAG)”, the “recombinant barcode read abundance (log10)” value was 0.0484. Consider “CCTACATCTTGGGTTCTAACCTGTTGCCT (site CCTACATCTAG)”, for which the “recombinant barcode read abundance (log10)” value was 0.123. In the case of “CCTACTCCTTGGGTTCTAACCTGTTGCAG (site CCTACTACTCG)”, the “recombinant barcode read abundance (log10)” value is 0.0435.

Consider “CCTACTCCTTGGGTTCTAACCTGTTGCAG (site CCTACTCCTCT)”, for which the “recombinant barcode read abundance (log10)” value came to 0.0147.

For “CCTATCCCTTGGGTTCTAACCTGTTGCCT (site CCTATCCCTAG)”, the “recombinant barcode read abundance (log10)” value was found to be 1.32. With “CCTATCCCTTGGGTTCTAACCTGTTGCCT (site CCTTTCACTAG)”, the “recombinant barcode read abundance (log10)” value was 0.311. For “CCTCAATCTTGGGTTCTAACCTGTTGCTT (site CCTCAATCTAA)”, the “recombinant barcode read abundance (log10)” value turned out to be 0.224. As for “CCTCAATCTTGGGTTCTAACCTGTTGCTT (site CCTCACTCTAA)”, the “recombinant barcode read abundance (log10)” value was 0.0745.

On to “CCTCAATCTTGGGTTCTAACCTGTTGCTT (site CCTCAGTCTAA)”, for which the “recombinant barcode read abundance (log10)” value was 0.0516. As for “CCTCAATCTTGGGTTCTAACCTGTTGCTT (site CCTCATTCTAA)”, the figure is 0.144. In the case of “CCTCACTCTTGGGTTCTAACCTGTTGCTT (site CCTCAATCTAA)”, the “recombinant barcode read abundance (log10)” value was found to be 0.058. In the case of “CCTCACTCTTGGGTTCTAACCTGTTGCTT (site CCTCACTCTAA)”, the “recombinant barcode read abundance (log10)” value is 1.2. On to “CCTCACTCTTGGGTTCTAACCTGTTGCTT (site CCTCAGTCTAA)”, for which the “recombinant barcode read abundance (log10)” value was 0.00592. In the case of “CCTCACTCTTGGGTTCTAACCTGTTGCTT (site CCTCATTCTAA)”, the “recombinant barcode read abundance (log10)” value was found to be 0.0602. With “CCTCAGACTTGGGTTCTAACCTGTTGCGA (site CCTCAGACTTC)”, the “recombinant barcode read abundance (log10)” value stood at 2.79.

As to “CCTCAGACTTGGGTTCTAACCTGTTGCGA (site CTTCAGACTTA)”, the “recombinant barcode read abundance (log10)” value came to 0.0629. Consider “CCTCAGGCTTGGGTTCTAACCTGTTGCCA (site CCTCAGGCTAG)”, for which the “recombinant barcode read abundance (log10)” value was found to be 0.312. The figure for “CCTCAGGCTTGGGTTCTAACCTGTTGCCA (site CCTCAGGCTCG)” is 0.0454. As to “CCTCAGGCTTGGGTTCTAACCTGTTGCCA (site CCTCAGGCTGG)”, the “recombinant barcode read abundance (log10)” value was found to be 0.217. Turning to “CCTCAGGCTTGGGTTCTAACCTGTTGCCA (site CCTCAGGCTTG)”, the “recombinant barcode read abundance (log10)” value stood at 0.323. Regarding “CCTCAGGCTTGGGTTCTAACCTGTTGCCC (site CCTCAGGCTAG)”, the “recombinant barcode read abundance (log10)” value amounted to 0.0156. Turning to “CCTCAGGCTTGGGTTCTAACCTGTTGCCC (site CCTCAGGCTCG)”, the “recombinant barcode read abundance (log10)” value worked out at 0.0734. As for “CCTCAGGCTTGGGTTCTAACCTGTTGCCC (site CCTCAGGCTGG)”, the figure is 0.651. As to “CCTCAGGCTTGGGTTCTAACCTGTTGCCC (site CCTCAGGCTTG)”, the “recombinant barcode read abundance (log10)” value is 0.399.
